Activity calls are given as the source filed them.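 The calls were made as follows: active = mean half-maximal activating concentration from the dose-response fit at or below a set limit; inactive = the rest.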
biological target: CHO-XBP1 luciferase reporter, IRE1-XBP1 UPR activation; test: XBP1 luciferase reporter activation – CHO-XBP1 cells, luminescence, counter-screen for apoptotic UPR arm activators, dose response (AID 489040);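 also: reporter read after six hours of compound exposure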

SMILES | EC50
CCOC(=O)C(CC)(CC)C(=O)/C=C/c1cccc(Br)c1 | > 80 µM (inactive)
O=C(/C(=C/c1ccc(Cl)cc1)c1nc2ccccc2[nH]1)c1cccs1 | > 80 µM (inactive)
O=C(/C=C/c1ccc(O)c(O)c1)OCCc1ccccc1 | > 80 µM (inactive)
Cc1cc(N/N=C/c2ccccc2[N+](=O)[O-])nc(-n2nc(C)cc2C)n1 | > 80 µM (inactive)
CCCC[C@@H](C)C[C@@H](C)C(=O)N(C)[C@@H](CC(C)C)C(=O)N[C@H](C(=O)N(C)[C@H](C(=O)N1C[C@@H](O)C[C@H]1C(=O)N1C(=O)C=C[C@@H]1C)C(C)C)C(C)OC(C)=O (stereo partly drawn) | 15.6 µM
O=C(COc1ccc2ccccc2c1)N1CCN(Cc2c[nH]c3ccccc23)CC1 | > 80 µM (inactive)
Cc1c(C#N)c(NC(=O)CCl)n(Cc2ccccc2)c1C | > 80 µM (inactive)
CC1CCCCC1N1CN=C(Nc2nc3ccccc3s2)NC1 (stereo not drawn) | > 80 µM (inactive)
COc1ccccc1N=c1oc2c(OC)cccc2cc1C(=O)NCc1ccco1 | inactive
Cc1ccc(-c2nn3c(C)nnc3s2)cc1NC(=O)c1ccc(-c2ccc(Cl)cc2Cl)o1 | 15.9 µM
O=C(N/N=C/c1ccccn1)c1cc(-c2ccc(Cl)cc2)nc2ccccc12 | > 80 µM (inactive)
Nc1cccc(-c2nc3cc(S(=O)(=O)c4ccc5oc(-c6cccc(N)c6)nc5c4)ccc3o2)c1 | > 80 µM (inactive)
CS(=O)(=O)Oc1ccc2c(c1)O/C(=C\C=C\c1ccccc1)C2=O | > 80 µM (inactive)
CCCCOC(=O)/C=C\C(=O)NC(N)=O | > 80 µM (inactive)
CC1CCC/C=C/C2CC(O)CC2C(O)/C=C/C(=O)O1 (stereo not drawn) | > 80 µM (inactive)
COc1ccc(C2=CC(=O)N(Nc3ccccc3)C2=O)cc1 | > 80 µM (inactive)
O=C(Nc1ccc(S(=O)(=O)N2CCOCC2)cc1)c1ccc([N+](=O)[O-])o1 | > 80 µM (inactive)
O=Cc1ccc(O)c2ncccc12 | > 80 µM (inactive)
O=C(/C=C/c1cccnc1)c1ccc(NC(=O)c2cccc(Br)c2)cc1 | > 80 µM (inactive)
COc1ccc(-c2cc(=O)oc3c(C)c(OC(=O)c4cccs4)ccc23)cc1 | > 80 µM (inactive)
Cc1ccc(C)c2sc(N3CCN(C(=O)c4ccc([N+](=O)[O-])o4)CC3)nc12 | > 80 µM (inactive)
O=C(N/N=C/c1ccccn1)c1sc2ccccc2c1Cl | > 80 µM (inactive)
COc1ccc(C(=O)Sc2ccc(Cl)cc2)cc1OC | > 80 µM (inactive)
Cc1cccc(Cn2cc(/C=C/[N+](=O)[O-])c3ccccc32)c1 | > 80 µM (inactive)
Cc1coc2c1C(=O)C(=O)c1c-2ccc2c(C)cccc12 | > 80 µM (inactive)

SMILES | EC50
O=C1C=CC(=O)N1c1ccc(N2CCCCC2)cc1 | > 80 µM (inactive)
CC(C)N1CSC(=S)N(Cc2ccccc2)C1 | > 80 µM (inactive)
O=C(CCl)Nc1cc(S(=O)(=O)N2CCCCCC2)ccc1Cl | > 80 µM (inactive)
COc1ccc(CCN2CCC(Nc3nc4ccccc4n3Cc3ccc(F)cc3)CC2)cc1 | > 80 µM (inactive)
Cc1ccc(NC(=O)c2ccc(N/N=C/c3cccc(O)c3)c([N+](=O)[O-])c2)cc1 | > 80 µM (inactive)
COc1cc2nc(=S)n3[nH]c(CCn4nc(C)cc4C)nc3c2cc1OC | > 80 µM (inactive)
C/C(=N\NC(=O)c1cc(-c2cccs2)nc2ccccc12)c1ccccn1 | > 80 µM (inactive)
O=C(/C=C/c1ccco1)NC(=S)Nc1ccc(O)c(-c2nc3ccccc3s2)c1 | 9.84 µM
O=[N+]([O-])c1ccc(C=Nc2ccc(Cl)cc2Cl)s1 | > 80 µM (inactive)
C/C(=N\NC(=O)C(c1ccccc1)c1ccccc1)c1ccccn1 | > 80 µM (inactive)
Cc1cc(C(=O)CCl)c(C)n1Cc1ccco1 | > 80 µM (inactive)
O=C(CCC(=O)Nc1ccc(Cl)cc1Cl)N/N=C/c1ccc([N+](=O)[O-])o1 | > 80 µM (inactive)
CCc1nnc(NC(=O)c2nc(S(=O)(=O)Cc3ccc(C)cc3)ncc2Cl)s1 | > 80 µM (inactive)
Cn1c(/C=C/c2ccc([N+](=O)[O-])o2)nc2ccccc2c1=O | > 80 µM (inactive)
COC(=O)C(=Cc1ccc(OCc2ccc([N+](=O)[O-])cc2)c(OC)c1)C(=O)OC | > 80 µM (inactive)
CC1=NOC(=O)/C1=C\c1ccc(-c2cccc(Cl)c2)o1 | > 80 µM (inactive)
Oc1ccc(-c2csc(-c3ccccc3)n2)cc1O | > 80 µM (inactive)
COc1ccc(C(=O)N/N=C(\C)c2ccccn2)cc1OC | > 80 µM (inactive)
Cc1cc(C(=O)c2ccc(C(C)(C)C)cc2)c(NC(=O)CCl)s1 | > 80 µM (inactive)
Cc1ccc(Cc2cnc(NC(=O)/C(C#N)=C/c3ccc(-c4ccc([N+](=O)[O-])cc4)o3)s2)cc1 | inactive
Oc1ccc(/C=N/N(c2ccccc2)c2ccccc2)cc1O | inactive
CCOC(=O)c1c(C)oc2c1c(C(c1cccnc1)N1CCOCC1)c(O)c1ccccc12 (stereo not drawn) | > 80 µM (inactive)
CN1CCN(c2ccc(NC(=O)c3ccc([N+](=O)[O-])o3)cc2Cl)CC1 | > 80 µM (inactive)
O=C(N/N=C/c1cccc([N+](=O)[O-])c1)c1cc2c(ccc3ccccc32)o1 | > 80 µM (inactive)
CCOC(=O)N1CCN(Cc2cc(Cl)c3cccnc3c2O)CC1 | > 80 µM (inactive)

SMILES | EC50
COc1ccc(C(C[N+](=O)[O-])n2nc(C)cc2C)cc1 (stereo not drawn) | > 80 µM (inactive)
CCN(CC)S(=O)(=O)c1ccc(N/N=C(\C)c2ccc3c(c2)OCO3)c([N+](=O)[O-])c1 | 17.5 µM
CCCCCCCCCn1c2c(c(=N)c3c1CCC3)CCCC2 | inactive
CSc1nnc(NC(=O)c2nc(S(=O)(=O)Cc3cccc(C)c3)ncc2Cl)s1 | > 80 µM (inactive)
O=C(/C=C/c1ccc(O)c(O)c1)c1ccccc1O | > 80 µM (inactive)
Cc1ccccc1NC(=O)c1ccc(N/N=C/c2ccccc2O)c([N+](=O)[O-])c1 | > 80 µM (inactive)
S=C1SCN(CCN2CCOCC2)CN1Cc1ccccc1 | > 80 µM (inactive)
O=C1Nc2ccccc2/C1=C/C(=O)c1cccs1 | > 80 µM (inactive)
CCOc1cc(/C=C2\CN(CC)C/C(=C\c3ccc(O)c(OCC)c3)C2=O)ccc1O | > 80 µM (inactive)
Oc1ccc(/C=N/Nc2ccc(C(F)(F)F)cn2)cc1O | > 80 µM (inactive)
COc1cc(/C=C/[N+](=O)[O-])ccc1O | > 80 µM (inactive)
Cc1ccc(CS(=O)(=O)c2ncc(Cl)c(C(=O)Nc3nnc(C(C)C)s3)n2)cc1 | > 80 µM (inactive)
CC(C)N1C(=O)/C(=C/C=C/c2ccco2)C(=O)N(Cc2ccco2)C1=O | > 80 µM (inactive)
O=C(/C=C/Sc1ccc(C(F)(F)F)cn1)c1ccccc1 | > 80 µM (inactive)
CC1(C)C=Cc2c(c3c(c4c(=O)c(-c5ccc(O)cc5)coc24)OC(C)(C)CC3)O1 | inactive
COc1ccccc1/C=N\Nc1cc(C)nc(-n2nc(C)cc2C)n1 | > 80 µM (inactive)
Cn1c(-c2cccc(OCc3ccccc3)c2)nc2c1c(=O)[nH]c(=O)n2Cc1ccccc1 | > 80 µM (inactive)
CCCCn1c(/C=N/Nc2nc3ccccc3[nH]2)nc2ccccc21 | > 80 µM (inactive)
CC(C)(C)C(=O)NC(=S)NNC(=O)c1ccc(-c2ccccc2)cc1 | 9.6 µM
Cc1nn(Cc2c(Cl)cccc2Cl)c(C)c1NC(=O)c1sc2ccccc2c1Cl | inactive
CC(C)N=c1scc(-c2cccs2)n1/N=C/c1ccc(O)c(O)c1O | > 80 µM (inactive)
CC1(C)CC(=O)C(=Cc2cn(-c3ccccc3)nc2-c2ccc(Cl)cc2)C(=O)C1 | > 80 µM (inactive)
CCOC(=O)c1cc(-c2ccc(/C=C3/C(=O)N(c4ccc(C(=O)O)cc4)N=C3C)o2)ccc1Cl | > 80 µM (inactive)
CCOC(=O)c1c(C)oc2c1c(C(c1ccccc1)N1CCOCC1)c(O)c1ccccc12 (stereo not drawn) | > 80 µM (inactive)
Cn1nc([N+](=O)[O-])c(C(C#N)c2ccccn2)c(Cl)c1=O (stereo not drawn) | > 80 µM (inactive)

SMILES | EC50
Oc1ccc(-c2csc(Nc3ccccn3)n2)cc1O | > 80 µM (inactive)
O=C(CN1CCN(c2ccccc2F)CC1)c1ccc(O)c(O)c1 | > 80 µM (inactive)
O=c1cc(C(Cl)(Cl)Cl)oc2c1ccc1ccccc12 | inactive
c1ccc(-c2nc(N3CCCCCC3)c3ccccc3n2)nc1 | > 80 µM (inactive)
C=CCN=c1scc(C)n1/N=C/c1ccc(O)c(O)c1 | 17.4 µM
Cc1ccc(C)c(N=Cc2c(O)c3ccccc3oc2=O)c1 | inactive
Cc1ccc(-c2nc(NC(=O)c3nn(C)cc3[N+](=O)[O-])sc2C)cc1C | > 80 µM (inactive)
Cc1cc(C(=O)CCl)c(C)n1CC1COc2ccccc2O1 (stereo not drawn) | > 80 µM (inactive)
Cc1ccc(-n2nc3cc(C)c(NC(=S)NC(=O)/C=C/c4ccco4)cc3n2)cc1 | inactive
O=C(NCc1cccnc1)/C(=C\c1ccc(-c2ccc(Br)cc2)o1)S(=O)(=O)c1ccccc1 | > 80 µM (inactive)
CCc1ccc2nc(N(CCCN(C)C)C(=O)c3ccc(S(=O)(=O)N4CCc5ccccc5C4)cc3)sc2c1 | > 80 µM (inactive)
COCCN1CSC(=S)N(Cc2ccco2)C1 | > 80 µM (inactive)
Oc1ccc(-c2nc(-c3ccc(O)c(O)c3)cs2)cc1 | > 80 µM (inactive)
Oc1[nH]c2ccccc2c1N=NC(=S)N1CCOCC1 | inactive
COc1ccccc1-c1cc(C(F)(F)F)nc(S(C)(=O)=O)n1 | > 80 µM (inactive)
O=S(=O)(CCSc1nc2ccccc2s1)c1nc2ccccc2s1 | > 80 µM (inactive)
CCOC(=O)c1c(CSC(=N)N)n(-c2ccc(C)cc2)c2cc(Br)c(OC(C)=O)cc12 | > 80 µM (inactive)
S=C1SCN(Cc2ccccn2)CN1Cc1ccco1 | > 80 µM (inactive)
N#Cc1ccc(N/N=C/c2cn(-c3ccccc3)nc2-c2ccccc2)c([N+](=O)[O-])c1 | > 80 µM (inactive)
CCn1c(-c2ccccc2)c(C(=O)CCl)c2ccccc21 | > 80 µM (inactive)
Cc1ccc(/C=C2\CCC3=C2OC(N)=C(C#N)C3c2ccc(C)cc2)cc1 (stereo not drawn) | > 80 µM (inactive)
CCc1cccc2c(C(=O)CCl)c[nH]c12 | > 80 µM (inactive)
Cc1cc(C(=O)c2ccc(Cl)cc2)c(NC(=O)CCl)s1 | > 80 µM (inactive)

Reference: PubChem BioAssay AID489040 (Sanford-Burnham Center for Chemical Genomics, 2010)
